Where a name gives a salt, the structure may show the parent alone.
Molecular target: T1, 5HT1A (Rattus norvegicus, UniProt P19327)
T1 construct: Cerebral cortex + hippocampus from each rat was dissected and homogenized; from tissue; host or cells: rat cerebral cortex + hippocampus homogenate
T1 sequence (P19327 1-422): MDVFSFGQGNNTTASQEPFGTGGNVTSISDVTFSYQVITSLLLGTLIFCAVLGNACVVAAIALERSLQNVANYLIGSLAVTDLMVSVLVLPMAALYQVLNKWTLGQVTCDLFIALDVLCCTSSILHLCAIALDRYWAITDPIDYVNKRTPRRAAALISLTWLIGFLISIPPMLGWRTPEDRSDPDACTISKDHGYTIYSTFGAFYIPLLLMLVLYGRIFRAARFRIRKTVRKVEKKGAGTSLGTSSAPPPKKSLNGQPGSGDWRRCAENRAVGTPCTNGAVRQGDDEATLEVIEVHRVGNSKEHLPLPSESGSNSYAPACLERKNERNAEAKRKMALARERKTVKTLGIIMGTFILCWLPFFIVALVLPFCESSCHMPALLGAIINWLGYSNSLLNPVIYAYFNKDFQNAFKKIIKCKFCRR
Experiment: 5HT1A binding assay (receptor binding, 3H-8-OH-DPAT, rat cerebral cortex + hippocampus)
Conditions: 3H-8-OH-DPAT (0.25 to 8 nM), rat cerebral cortex + hippocampus homogenate, 37° C., 10 min, pH 7.5
Protocol: Another observation is that some of these compounds have a particularly good oral bioavailability. In order to evaluate the affinity for this subgroup of/the 5-HT-receptors, the effects on various receptors in rat brain were measured in vitro using receptor assays (Ki nM).
5HT1A binding assay. Cerebral cortex + hippocampus from each rat was dissected and homogenized in 15 ml ice-cold 50 mM Tris-HCl buffer 4.0 mM CaCl2 and 5.7 mM ascorbic acid, pH 7.5 with an Ultra-Turrax (Janke & Kunkel, Staufen, FRG) for ten s. After centrifugation for 12.5 min at 17,000 rpm (39,800×g in a Beckman centrifuge with a chilled JA-17 rotor (Beckman, Palo Alto, Calif., USA), the pellets were resuspended in the same buffer and homogenization and centrifugation repeated. To each pellet 5 ml ice-cold 0.32M sucrose were added and homogenized for 5 sec. These samples were kept frozen at -70° C. When used they were diluted with the buffer to 8 mg tissue/ml and homogenized for 10 sec.
The tissue homogenates were incubated for ten min at 37° C. and then supplied with 10 μM pargyline followed by reincubation for 10 min.
The binding assay followed that described by Peroutka, J. Neurochem. 47, 529-540, (1986). The incubation mixture (2 ml) contained ^3 H-8-OH-DPAT (0.25 to 8 nM), 5 mg/ml tissue homogenate in 50 mM Tris-HCl buffer containing 4.0 mM CaCl2 and 5.7 mM ascorbic acid, pH 7.5. Six different concentrations of ^3 H-8-OH-DPAT were analyzed. Binding experiments were started by the addition of tissue homogenate and followed by incubation at 37° C. for ten min. The incubation mixtures were filtered through Whatman GF/B glass filters with a Brandel Cell Harvester (Gaithersburg, Md., USA). The filters were washed twice with 5 ml ice-cold 50 mM Tria-HCl buffer, pH 7.5, and counted with 5 ml Ready-solv HP (Beckman) in a Beckman LS 3801 scintillation counter. Non-specific binding was measured by the addition of 10 μM 5-HT to the reaction mixture. The binding data was processed by non-linear least squares computer/analysis (Munson and Rodbard, Anal. Biochem. 107, 220-239, (1980).

| Structure (SMILES) | Ki [nM] |
| --- | --- |
| CCCN(CCC)C1CCc2cccc(C(C)=O)c2C1 (racemic) [Example 2, (±)-8-Acetyl-2-(dipropylamino)tetralin hydrochloride] | 0.9 |
| CCCN(CCC)C1CCc2cccc(-c3ccco3)c2C1 (racemic) [Example 11, (±)-8-(2-Furanyl)-2-(dipropylamino)tetralin oxalate] | 1.5 |
| CCCN(CCC)C1CCc2cccc(C(C)=O)c2C1 (single isomer, unassigned; (+)) [Example 6, (+)-8-Acetyl-2-(dipropylamino)tetralin hydrochloride] | 1.7 |

— US5635537A, “8-substituted-2-aminotetralins” (Astra Aktiebolag, priority 1989, dated 1997)
